Assay results taken from patent publication US20250144067A1, “PERSONALIZED STARVATION THERAPY FOR CANCER” (Faeth Therapeutics, Inc., priority 2021, published 2025).
Where a name gives a salt, the structure may show the parent alone.

Key:
[1] = system: NCI-H292 lung cancer cells; assay: FDA drug screening, complete media vs cholesterol-free media without statin (TABLE 1); type: cell-based, human
[2] = system: NCI-H292 lung cancer cells; assay: FDA drug screening, complete media vs cholesterol-free media with simvastatin (TABLE 2); type: cell-based, human; settings: for Cholesterol-free media + simvastatin (0.04 μM) / Complete Media: NCI-H292 cells
[3] = Complete minus Cholesterol-free, >0 enhanced anti-cancer activity, about 0 neutral, <0 antagonist
[4] = NCI-H292 cells, cholesterol-free media without statin
[5] = drug in cholesterol-free media with simvastatin 0.04 μM
[6] = complete media vs cholesterol-free media + simvastatin (0.04 μM), >0 enhanced anti-cancer activity, about 0 neutral, <0 antagonist
[7] = NCI-H292 cells, cholesterol-free media without statin, FDA drug library screen
[8] = NCI-H292 cells, complete media, FDA drug library screen
[9] = cholesterol-free media with simvastatin 0.04 μM, cell growth value in FDA drug screen
[10] = complete media, cell growth value in FDA drug screen
[11] = complete media minus cholesterol-free media + simvastatin, >0 enhanced anti-cancer activity, about 0 neutral, <0 antagonist
[12] = Complete minus Cholesterol-free, greater than 0 enhanced anti-cancer activity, about 0 neutral, below 0 antagonists
[13] = NCI-H292 cells in cholesterol-free media without statin
[14] = NCI-H292 cells in complete media
[15] = FDA library drug in cholesterol-free media with simvastatin 0.04 μM
[16] = FDA library drug in complete media
[17] = FDA drug library screen, cholesterol-free media with simvastatin 0.04 μM
[18] = FDA drug library screen, complete media
[19] = Complete minus Cholesterol-free, greater than 0 enhanced anti-cancer activity, about 0 neutral, below 0 antagonist
[20] = NCI-H292 cells, FDA drug library screen, cholesterol-free media without statin
[21] = NCI-H292 cells, FDA drug library screen, complete media

SMILES | Difference [1, 3] | Difference [2, 6] | Cholesterol-free [1, 7] | Complete [1, 8] | Cholesterol-free media + simvastatin (0.04 μM) [2, 15] | Complete Media [2, 16] | further results
CO/N=C1\C[C@]2(C[C@@H]3C[C@@H](C/C=C(\C)C[C@@H](C)/C=C/C=C4\CO[C@@H]5[C@H](O)C(C)=C[C@@H](C(=O)O3)[C@]45O)O2)O[C@H](/C(C)=C/C(C)C)[C@H]1C [Moxidectin] | −0.21 | −0.17 |  |  |  |  | Cholesterol-free [1, 4]: 0.4893; Complete ([1]; NCI-H292 cells, complete media): 0.2816; Cholesterol-free media + simvastatin (0.04 μM) [2, 5]: 0.8625; Complete Media ([2]; drug in complete media): 0.6882
CC(=O)Oc1cc(C(C)C)c(OCCN(C)C)cc1C [Moxisylyte (hydrochloride)] | 0.07 | −0.17 | 1.028 | 1.096 |  |  | Cholesterol-free media + simvastatin (0.04 μM) [2, 5]: 1.237; Complete Media ([2]; drug in complete media): 1.071
COc1nc(C)nc(Cl)c1N=C1NCCN1 [Moxonidine] | 0.05 |  | 0.9137 | 0.9657 |  |  | Cholesterol-free media + simvastatin (0.04 μM) [2, 9]: 0.8373; Complete Media [2, 10]: 0.9283; Difference [2, 11]: 0.09
Cc1ccccc1C(=O)Nc1ccc(C(=O)N2CCCC(N(C)C)c3ccccc32)cc1 (centres unmarked) [Mozavaptan (hydrochloride)] |  |  |  |  |  |  | Difference [1, 12]: −0.56; Cholesterol-free [1, 13]: 1.248; Complete [1, 14]: 0.6877; Cholesterol-free media + simvastatin (0.04 μM) [2, 9]: 1.17; Complete Media [2, 10]: 1.196; Difference [2, 11]: 0.03
Cc1ccccc1C(=O)Nc1ccc(C(=O)N2CCCC(N(C)C)c3ccccc32)cc1 (centres unmarked) [Mozavaptan] | −0.20 | −0.28 |  |  | 1.121 | 0.8375 | Cholesterol-free [1, 4]: 0.8282; Complete ([1]; NCI-H292 cells, complete media): 0.6332
C/C(=C\C(=O)OCCCCCCCCC(=O)O)C[C@@H]1OC[C@H](C[C@@H]2O[C@H]2[C@@H](C)[C@H](C)O)[C@@H](O)[C@H]1O [Mupirocin] |  | −0.38 | 0.7089 | 1.063 | 1.454 | 1.069 | Difference ([1]; complete vs cholesterol-free media, >0 enhanced anti-cancer activity, about 0 neutral, <0 antagonist): 0.35
COc1c(C)c2c(c(O)c1C/C=C(\C)CCC(=O)OCCN1CCOCC1)C(=O)OC2 [Mycophenolate Mofetil] | −0.01 | −0.09 | 0.3372 | 0.3232 |  |  | Cholesterol-free media + simvastatin (0.04 μM) [2, 17]: 0.7059; Complete Media [2, 18]: 0.6206
COc1c(C)c2c(c(O)c1C/C=C(\C)CCC(=O)O)C(=O)OC2 [Mycophenolic acid] | −0.06 | −0.22 | 0.346 | 0.2837 |  |  | Cholesterol-free media + simvastatin (0.04 μM) [2, 5]: 0.743; Complete Media ([2]; drug in complete media): 0.5199
CC(=O)N[C@@H](Cc1ccc(O)cc1)C(=O)O [N-Acetyl-L-tyrosine] |  | −0.13 |  |  |  |  | Difference [1, 19]: −0.16; Cholesterol-free [1, 20]: 1.221; Complete [1, 21]: 1.059; Cholesterol-free media + simvastatin (0.04 μM) [2, 17]: 1.348; Complete Media [2, 18]: 1.218
CCN(CC)CCNC(=O)c1ccc(NC(C)=O)cc1 [N-Acetylprocainamide] |  |  | 1.279 | 1.656 |  |  | Difference ([1]; complete vs cholesterol-free media, […]): 0.38; Cholesterol-free media + simvastatin (0.04 μM) [2, 17]: 0.9234; Complete Media [2, 18]: 0.8479; Difference ([2]; complete media vs cholesterol-free media + simvastatin (0.04 μM), […]): −0.08
COc1ccc2cc(CCC(C)=O)ccc2c1 [Nabumetone] |  | −0.41 |  |  | 1.525 | 1.112 | Difference [1, 19]: −0.18; Cholesterol-free [1, 20]: 1.034; Complete [1, 21]: 0.8533
CC1CCc2c(N3CCC(O)CC3)c(F)cc3c(=O)c(C(=O)O)cn1c23 (centres unmarked) [Nadifloxacin] | −0.03 | −0.80 | 0.9891 | 0.9558 | 1.859 | 1.054 | 
CC(C)(C)NCC(O)COc1cccc2c1CC(O)C(O)C2 (centres unmarked) [Nadolol] | −0.30 | −0.29 |  |  | 1.308 | 1.014 | Cholesterol-free [1, 4]: 1.37; Complete ([1]; NCI-H292 cells, complete media): 1.069
CCOc1ccc2ccccc2c1C(=O)N[C@@H]1C(=O)N2[C@@H]1SC(C)(C)[C@@H]2C(=O)O [Nafcillin (sodium monohydrate)] |  |  |  |  |  |  | Difference [1, 12]: −1.00; Cholesterol-free [1, 13]: 1.957; Complete [1, 14]: 0.9538; Cholesterol-free media + simvastatin (0.04 μM) [2, 17]: 0.8693; Difference [2, 11]: 0.30
